What follows are compounds tested against Granzyme B (human lymphocytes) (Homo sapiens (Human), UniProt P10144) (assay: human Granzyme B biochemical assay). Settings: Granzyme B (human lymphocytes) 5 nM, substrate Ac-IETD-AFC 200 μM, Cpd incubation with enzyme 30 mins, 22° C., read time 60 mins; read-out: IC50.
Summary of the method: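 Fluorogenic Ac-IETD-AFC cleavage (Ex 400/Em 505 nm) read after 60 min at 22 °C, following 30 min, 22 °C enzyme–compound pre-incubation. Working stocks: enzyme 10 nM in 0.1% BSA buffer, substrate 800 µM, compound 8 points, 3.16-fold from 40 µM. Controls set 0% (DMSO) and 100% (standard inhibitor) inhibition; IC50 fitted.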

Chain of Granzyme B (human lymphocytes) (P10144 21-247): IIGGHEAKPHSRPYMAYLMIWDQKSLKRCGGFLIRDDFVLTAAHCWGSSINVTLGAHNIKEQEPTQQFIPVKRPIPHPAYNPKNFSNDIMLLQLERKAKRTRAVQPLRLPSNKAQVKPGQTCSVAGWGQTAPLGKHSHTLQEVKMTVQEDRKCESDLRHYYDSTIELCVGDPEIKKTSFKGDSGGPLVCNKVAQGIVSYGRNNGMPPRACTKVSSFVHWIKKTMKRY

Row | IC50 [nM] | SMILES
1 | 1000 to 5000 | CC[C@H](C)[C@H](NC(=O)COCCF)C(=O)N[C@H]1CCc2cccc3c2N(C1=O)[C@H](C(=O)NCc1cc(O)n[nH]1)C3 [Compound C166, (2S,5S)-5-{(2S,3S)-2-[2-(2-Fluoro-ethoxy)-acetylamino]-3-methyl-pentanoylamino}-4-oxo-1,2,4,5,6,7-hexahydro-azepino[3,2,1-hi]indole-2-carboxylic acid (5-hydroxy-2H-pyrazol-3-ylmethyl)-amide]
2 | > 5000 | O=C(Cc1csc2ccccc12)N[C@@H](CO)C(=O)N[C@H]1CCc2cccc3c2N(C1=O)[C@H](C(=O)NCc1c[nH]nn1)C3 [Compound C007, (2S,5S)-5-[(S)-2-(2-Benzo[b]thiophen-3-yl-acetylamino)-3-hydroxy-propionylamino]-4-oxo-1,2,4,5,6,7-hexahydro-azepino[3,2,1-hi]indole-2-carboxylic acid (1H-[1,2,3]triazol-4-ylmethyl)-amide]
3 | 301 to 1000 | CCC(CC)[C@H](NC(=O)Cc1csc2ccccc12)C(=O)N[C@H]1CCc2cccc3c2N(C1=O)[C@H](C(=O)NCc1c[nH]nn1)C3 [Compound C072, (2S,5S)-5-[(S)-2-(2-Benzo[b]thiophen-3-yl-acetylamino)-3-ethyl-pentanoylamino]-4-oxo-1,2,4,5,6,7-hexahydro-azepino[3,2,1-hi]indole-2-carboxylic acid (1H-[1,2,3]triazol-4-ylmethyl)-amide]
4 | 1 to 300 | CC(C)[C@H](NC(=O)c1ccccc1)C(=O)N[C@H]1COc2cccc3c2N(C1=O)[C@H](C(=O)NCc1c[nH]nn1)C3 [Compound C100, (1S,8S)-8-((S)-2-Benzoylamino-3-methyl-butyrylamino)-9-oxo-1,2,8,9-tetrahydro-7H-6-oxa-9a-aza-benzo[cd]azulene-1-carboxylic acid (1H-[1,2,3,]triazol-4-ylmethyl)-amide]
5 | 1 to 300 | CC[C@H](C)[C@H](NC(=O)COCCF)C(=O)N[C@H]1CNc2cccc3c2N(C1=O)[C@H](C(=O)NCc1c[nH]nn1)C3 [Compound C143, (3S,6S)-3-{(2S,3S)-2-[2-(2-Fluoro-ethoxy)-acetylamino]-3-methyl-pentanoylamino}-4-oxo-1,2,3,4,6,7-hexahydro-[1,4]diazepino[3,2,1-hi]indole-6-carboxylic acid (1H-[1,2,3]triazol-4-ylmethyl)-amide]
6 | 1 to 300 | CC(=O)N[C@H](C(=O)N[C@H]1CCc2cccc3c2N(C1=O)[C@H](C(=O)NCc1c[nH]nn1)C3)C1CCCC1 [Compound C077, (2S,5S)-5-((S)-2-Acetylamino-2-cyclopentyl-acetylamino)-4-oxo-1,2,4,5,6,7-hexahydro-azepino[3,2,1-hi]indole-2-carboxylic acid (1H-[1,2,3]triazol-4-ylmethyl)-amide]
7 | 1000 to 5000 | CC(=O)N[C@@H](CC(C)C)C(=O)N[C@H]1CCc2cccc3c2N(C1=O)[C@H](C(=O)NCc1c[nH]nn1)C3 [Compound C027, (2S,5S)-5-((S)-2-Acetylamino-4-methyl-pentanoylamino)-4-oxo-1,2,4,5,6,7-hexahydro-azepino[3,2,1-hi]indole-2-carboxylic acid (1H-[1,2,3]triazol-4-ylmethyl)-amide]
8 | > 5000 | CC[C@H](C)[C@H](NC(=O)COCCF)C(=O)N[C@H]1CCc2cccc3c2N(C1=O)[C@H](C(=O)NCc1ccco1)C3 [Compound C105, (2S,5S)-5-{(2S,3S)-2-[2-(2-Fluoro-ethoxy)-acetylamino]-3-methyl-pentanoylamino}-4-oxo-1,2,4,5,6,7-hexahydro-azepino[3,2,1-hi]indole-2-carboxylic acid (furan-2-ylmethyl)-amide]
9 | 1000 to 5000 | CC(C)C[C@H](NC(=O)Cc1ccccc1)C(=O)N[C@H]1CCc2cccc3c2N(C1=O)[C@H](C(=O)NCc1c[nH]nn1)C3 [Compound C016, (2S,5S)-5-((S)-4-Methyl-2-phenylacetylamino-pentanoylamino)-4-oxo-1,2,4,5,6,7-hexahydro-azepino[3,2,1-hi]indole-2-carboxylic acid (1H-[1,2,3]triazol-4-ylmethyl)-amide]
10 | 301 to 1000 | CC(=O)N[C@H](C(=O)N[C@H]1CCc2cccc3c2N(C1=O)[C@H](C(=O)NCc1c[nH]nn1)C3)C1CC1 [Compound C081, (2S,5S)-5-((S)-2-Acetylamino-2-cyclopropyl-acetylamino)-4-oxo-1,2,4,5,6,7-hexahydro-azepino[3,2,1-hi]indole-2-carboxylic acid (1H-[1,2,3]triazol-4-ylmethyl)-amide]
11 | > 5000 | CC[C@H](C)[C@H](NC(=O)COCCF)C(=O)N[C@H]1CCc2cccc3c2N(C1=O)[C@H](C(=O)NCc1cocn1)C3 [Compound C114, (2S,5S)-5-{(2S,3S)-2-[2-(2-Fluoro-ethoxy)-acetylamino]-3-methyl-pentanoylamino}-4-oxo-1,2,4,5,6,7-hexahydro-azepino[3,2,1-hi]indole-2-carboxylic acid (oxazol-4-ylmethyl)-amide]
12 | 1 to 300 | Cc1ccc(C(=O)N[C@H](C(=O)N[C@H]2CCc3cccc4c3N(C2=O)[C@H](C(=O)NCc2c[nH]nn2)C4)C(C)C)cc1 [Compound C052, (2S,5S)-5-[(S)-3-Methyl-2-(4-methyl-benzoylamino)-butyrylamino]-4-oxo-1,2,4,5,6,7-hexahydro-azepino[3,2,1-hi]indole-2-carboxylic acid (1H-[1,2,3]triazol-4-ylmethyl)-amide]
13 | 1 to 300 | Cc1cccc(C(=O)N[C@H](C(=O)N[C@H]2CCc3cccc4c3N(C2=O)[C@H](C(=O)NCc2c[nH]nn2)C4)C(C)C)c1 [Compound C051, (2S,5S)-5-[(S)-3-Methyl-2-(3-methyl-benzoylamino)-butyrylamino]-4-oxo-1,2,4,5,6,7-hexahydro-azepino[3,2,1-hi]indole-2-carboxylic acid (1H-[1,2,3]triazol-4-ylmethyl)-amide]
14 | 1 to 300 | CC(C)[C@H](NC(=O)c1ccncc1)C(=O)N[C@H]1CCc2cccc3c2N(C1=O)[C@H](C(=O)NCc1c[nH]nn1)C3 [Compound C071, (2S,5S)-5-{(S)-3-Methyl-2-[(pyridine-4-carbonyl)-amino]-butyrylamino}-4-oxo-1,2,4,5,6,7-hexahydro-azepino[3,2,1-hi]indole-2-carboxylic acid (1H-[1,2,3]triazol-4-ylmethyl)-amide]
15 | 1000 to 5000 | CC(=O)N[C@H](C(=O)N[C@H]1CCc2cccc3c2N(C1=O)[C@H](C(=O)NCc1c[nH]nn1)C3)c1ccccc1 [Compound C031, (2S,5S)-5-((S)-2-Acetylamino-2-phenyl-acetylamino)-4-oxo-1,2,4,5,6,7-hexahydro-azepino[3,2,1-hi]indole-2-carboxylic acid (1H-[1,2,3]triazol-4-ylmethyl)-amide]
16 | > 5000 | CC[C@H](C)[C@H](NC(=O)COCCF)C(=O)N[C@H]1CCc2cccc3c2N(C1=O)[C@H](C(=O)NCc1ccc(Cl)cc1)C3 [Compound C132, (2S,5S)-5-{(2S,3S)-2-[2-(2-Fluoro-ethoxy)-acetylamino]-3-methyl-pentanoylamino}-4-oxo-1,2,4,5,6,7-hexahydro-azepino[3,2,1-hi]indole-2-carboxylic acid 4-chloro-benzylamide]
17 | 1 to 300 | CC([C@H](NC(=O)c1ccccc1)C(=O)N[C@H]1CCc2cccc3c2N(C1=O)[C@H](C(=O)NCc1c[nH]nn1)C3)C(F)(F)F (stereo partly drawn) [Compound C055, (2S,5S)-5-((S)-2-Benzoylamino-4,4,4-trifluoro-3-methyl-butyrylamino)-4-oxo-1,2,4,5,6,7-hexahydro-azepino[3,2,1-hi]indole-2-carboxylic acid (1H-[1,2,3]triazol-4-ylmethyl)-amide]
18 | 1000 to 5000 | CC(=O)N[C@@H](Cc1ccccc1)C(=O)N[C@H]1CCc2cccc3c2N(C1=O)[C@H](C(=O)NCc1c[nH]nn1)C3 [Compound C026, (2S,5S)-5-((S)-2-Acetylamino-3-phenyl-propionylamino)-4-oxo-1,2,4,5,6,7-hexahydro-azepino[3,2,1-hi]indole-2-carboxylic acid (1H-[1,2,3]triazol-4-ylmethyl)-amide]
19 | > 5000 | CC[C@H](C)[C@H](NC(=O)COCCF)C(=O)N[C@H]1CCc2cccc3c2N(C1=O)[C@H](C(=O)NCc1ccccc1Cl)C3 [Compound C130, (2S,5S)-5-{(2S,3S)-2-[2-(2-Fluoro-ethoxy)-acetylamino]-3-methyl-pentanoylamino}-4-oxo-1,2,4,5,6,7-hexahydro-azepino[3,2,1-hi]indole-2-carboxylic acid 2-chloro-benzylamide]
20 | 1 to 300 | CC[C@H](C)[C@H](NC(=O)c1ccccn1)C(=O)N[C@H]1CCc2cccc3c2N(C1=O)[C@H](C(=O)NCc1c[nH]nn1)C3 [Compound C066, (2S,5S)-5-{(2S,3S)-3-Methyl-2-[(pyridine-2-carbonyl)-amino]-pentanoylamino}-4-oxo-1,2,4,5,6,7-hexahydro-azepino[3,2,1-hi]indole-2-carboxylicacid (1H-[1,2,3]triazol-4-ylmethyl)-amide]
21 | 1 to 300 | CC[C@H](C)[C@H](NC(=O)c1ccc(OC)cc1)C(=O)N[C@H]1CCc2cccc3c2N(C1=O)[C@H](C(=O)NCc1c[nH]nn1)C3 [Compound C062, (2S,5S)-5-[(2S,3S)-2-(4-Methoxy-benzoylamino)-3-methyl-pentanoylamino]-4-oxo-1,2,4,5,6,7-hexahydro-azepino[3,2,1-hi]indole-2-carboxylic acid(1H-[1,2,3]triazol-4-ylmethyl)-amide]
22 | 1 to 300 | O=C(N[C@H](C(=O)N[C@H]1CCc2cccc3c2N(C1=O)[C@H](C(=O)NCc1c[nH]nn1)C3)C1CCC1)c1ccccc1 [Compound C084, (2S,5S)-5-((S)-2-Benzoylamino-2-cyclobutyl-acetylamino)-4-oxo-1,2,4,5,6,7-hexahydro-azepino[3,2,1-hi]indole-2-carboxylic acid (1H-[1,2,3]triazol-4-ylmethyl)-amide]

From patent publication US11667645B2, “Granzyme B directed imaging and therapy” (CytoSite Biopharma Inc., priority 2018, dated 2023)
